Measurements: ChEMBL document CHEMBL1921700, “Synthesis of novel 3-carboxamide-benzocoumarin derivatives as orally active antithrombotic agents” (Bioorg Med Chem Lett, 2011)

How the values were obtained:
[1] = test system: Mus musculus; assay: Ex vivo antithrombotic activity in mouse assessed as protection against collagen and adrenaline-induced hind limb paralysis or death at 30 uM/kg, po administered 60 mins prior to thrombotic challenge after 3 days; assay type: functional, Hindlimb
[2] = test system: Mus musculus; assay: Ex vivo anticoagulant activity in mouse assessed as prothrombin time in plasma at 30 uM/kg, po after for 3 days; assay type: functional
[3] = test system: Mus musculus; assay: Ex vivo antithrombotic activity in mouse assessed as protection against collagen and adrenaline-induced hind limb paralysis or death at 30 uM/kg, po administered 60 mins prior to thrombotic challenge after 1 hr; assay type: functional, Hindlimb
[4] = test system: Mus musculus; assay: Toxicity in mouse assessed as increase in bleeding time at 30 uM/kg, po administered 60 mins prior to tail incision after 1 hr relative to aspirin; assay type: organism-based; conditions: in vivo
[5] = test system: Mus musculus; assay: Toxicity in mouse assessed as increase in bleeding time at 30 uM/kg, po administered 60 mins prior to tail incision after 3 days relative to aspirin; assay type: organism-based; conditions: in vivo

Row | Compound | Activity [1] [%] | Time [2] [s] | Activity [3] [%] | Activity [4] [%] | Activity [5] [%]
1 | Cc1cc2cc(C(=O)N3CCN(C)CC3)c(=O)oc2c2ccccc12 | 20 | 8.1 | 10 | 17 | 55
2 | Cc1ccc(NC(=O)c2cc3cc(/C=C/C(=O)c4ccc(C)cc4)c4ccccc4c3oc2=O)cc1 | 44 | 9.5 | 40 | 83 | 109
3 | Cc1ccc(C(=O)/C=C/c2cc3cc(C(=O)NC4CCCCC4)c(=O)oc3c3ccccc23)cc1 | 44 | 10.6 | 40 | 84 | 109
4 | Cc1cc2cc(C(=O)N3CCCCC3)c(=O)oc2c2ccccc12 | 29 | 9.4 | 20 | 59 | 91
5 | CC(=O)Oc1ccccc1C(=O)O [ASPIRIN] |  |  | 37 | 100 | 
6 | CC(=O)CC(c1ccccc1)c1c(O)c2ccccc2oc1=O (stereo not given) [WARFARIN] | 50 | 116 |  |  | 46
7 | Cc1cc2cc(C(=O)NCCCN3CCOCC3)c(=O)oc2c2ccccc12 | 33 | 10.2 | 30 | 50 | 91
8 | CCCNC(=O)c1cc2cc(C)c3ccccc3c2oc1=O | 20 | 10.2 | 10 | 17 | 55
9 | Cc1ccc(C(=O)/C=C/c2cc3cc(C(=O)N4CCN(C)CC4)c(=O)oc3c3ccccc23)cc1 | 22 | 8.7 | 20 | 34 | 36
10 | Cc1cc2cc(C(=O)N3CCOCC3)c(=O)oc2c2ccccc12 | 33 | 11.6 | 20 | 33 | 100
11 | CCNC(=O)c1cc2cc(/C=C/C(=O)c3ccc(C)cc3)c3ccccc3c2oc1=O | 44 | 11.1 | 40 | 33 | 100
12 | Cc1ccc(C(=O)/C=C/c2cc3cc(C(=O)N(C)C)c(=O)oc3c3ccccc23)cc1 | 33 | 10.5 | 30 | 59 | 82
13 | CCCNC(=O)c1cc2cc(/C=C/C(=O)c3ccc(C)cc3)c3ccccc3c2oc1=O | 33 | 10.3 | 40 | 100 | 127
14 | Cc1cc2cc(C(=O)NC3CCCCC3)c(=O)oc2c2ccccc12 | 40 | 10.2 | 35 | 53 | 82
15 | CCNC(=O)c1cc2cc(C)c3ccccc3c2oc1=O | 30 | 10.2 | 30 | 45 | 68
16 | Cc1cc2cc(C(=O)N(C)C)c(=O)oc2c2ccccc12 | 40 | 10 | 20 | 58 | 100
17 | CNC(=O)c1cc2cc(/C=C/C(=O)c3ccc(C)cc3)c3ccccc3c2oc1=O | 22 | 9.9 | 20 | 17 | 55
18 | Cc1ccc(C(=O)/C=C/c2cc3cc(C(=O)N4CCCCC4)c(=O)oc3c3ccccc23)cc1 | 42 | 9.7 | 30 | 25 | 45
19 | Cc1ccc(C(=O)/C=C/c2cc3cc(C(=O)N4CCOCC4)c(=O)oc3c3ccccc23)cc1 | 30 | 11.4 | 20 | 17 | 55
20 | CNC(=O)c1cc2cc(C)c3ccccc3c2oc1=O | 40 | 8.5 | 35 | 48 | 65
21 | Cc1ccc(C(=O)/C=C/c2cc3cc(C(=O)NCCCN4CCOCC4)c(=O)oc3c3ccccc23)cc1 | 33 | 11 | 30 | 25 | 45
22 | Cc1ccc(NC(=O)c2cc3cc(C)c4ccccc4c3oc2=O)cc1 | 40 | 9.3 | 30 | 58 | 63
